Reference: the supplement of paper PMC5908809

Legend:
KHYG-1 (IL-2 2.5 ng/mL) [1] = assay: drug sensitivity score (DSS) (DSS units); higher = more sensitive; extreme values may be limits of the assay; conditions: 72 h
NK-92 (IL-2 2.5 ng/mL) [2] = assay: as above; conditions: 72 h
SNK-6 (IL-2 2.5 ng/mL) [3] = assay: as above; conditions: 72 h
NKL (IL-2 2.5 ng/mL) [4] = assay: as above; conditions: 72 h
[5] = system: normal primary NK cells, pool 1 (3 donors) (IL-2 2.5 ng/mL); assay: as above; conditions: 72 h
[6] = system: normal primary NK cells, pool 1 (3 donors), resting (IL-2 0 ng/mL); assay: as above; conditions: 72 h
KAI3 (IL-2 2.5 ng/mL) [7] = assay: as above; conditions: 72 h
DERL-7 (IL-2 2.5 ng/mL) [8] = assay: as above; conditions: 72 h
YT (IL-2 2.5 ng/mL) [9] = assay: as above; conditions: 72 h
NK-YS (IL-2 2.5 ng/mL) [10] = assay: as above; conditions: 72 h
KHYG-1 (IL-2 2.5 ng/mL) [11] = assay: percent inhibition of viability; higher = more inhibition; conditions: 72 h
NK-92 (IL-2 2.5 ng/mL) [12] = assay: as above; conditions: 72 h
SNK-6 (IL-2 2.5 ng/mL) [13] = assay: as above; conditions: 72 h
NKL (IL-2 2.5 ng/mL) [14] = assay: as above; conditions: 72 h
[15] = system: normal primary NK cells, pool 1 (3 donors) (IL-2 2.5 ng/mL); assay: as above; conditions: 72 h
[16] = system: normal primary NK cells, pool 1 (3 donors), resting (IL-2 0 ng/mL); assay: as above; conditions: 72 h
KAI3 (IL-2 2.5 ng/mL) [17] = assay: as above; conditions: 72 h
DERL-7 (IL-2 2.5 ng/mL) [18] = assay: as above; conditions: 72 h
YT (IL-2 2.5 ng/mL) [19] = assay: as above; conditions: 72 h
NK-YS (IL-2 2.5 ng/mL) [20] = assay: as above; conditions: 72 h
[21] = system: normal NK cells expanded with K562-aAPC; assay: as above; conditions: 72 h, IL-2 2.5 ng/mL
Procedure: (§1)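 Drug sensitivity and resistance testing on K562-aAPC-expanded normal NK cells: 5 concentrations (10-fold steps over a 10,000-fold range), 72 h at 37 °C, viability by CellTiter-Glo normalised to DMSO and benzethonium chloride controls; DSS from the fitted curve.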

[22] = system: normal primary NK cells, pool 2 (3 donors) (IL-2 2.5 ng/mL); assay: drug sensitivity score (DSS) (DSS units); higher = more sensitive; extreme values may be limits of the assay; conditions: 72 h
IMC-1 (IL-2 20 ng/mL) [23] = assay: as above; conditions: 72 h
[24] = system: normal primary NK cells, pool 3 (3 donors) (IL-2 2.5 ng/mL); assay: as above; conditions: 72 h
[25] = system: normal primary NK cells, pool 2 (3 donors) (IL-2 2.5 ng/mL); assay: percent inhibition of viability; higher = more inhibition; conditions: 72 h
IMC-1 (IL-2 20 ng/mL) [26] = assay: as above; conditions: 72 h
[27] = system: normal primary NK cells, pool 3 (3 donors) (IL-2 2.5 ng/mL); assay: as above; conditions: 72 h
[28] = system: normal NK cells expanded with K562-aAPC; assay: drug sensitivity score (DSS) (DSS units); higher = more sensitive; extreme values may be limits of the assay; conditions: 72 h; IL-2 2.5 ng/mL
Procedure: as §1

Cc1sc2c(c1C)C(c1ccc(Cl)cc1)=N[C@@H](CC(=O)OC(C)(C)C)c1nnc(C)n1-2 [(+)JQ1] (max concentration tested 10000 nM)
Conditions	drug sensitivity score
DERL-7 (IL-2 2.5 ng/mL) [8]	24.3
KAI3 (IL-2 2.5 ng/mL) [7]	9.24
KHYG-1 (IL-2 2.5 ng/mL) [1]	19.9
NK-92 (IL-2 2.5 ng/mL) [2]	4.26
NK-YS (IL-2 2.5 ng/mL) [10]	13.9
NKL (IL-2 2.5 ng/mL) [4]	16.6
SNK-6 (IL-2 2.5 ng/mL) [3]	15
YT (IL-2 2.5 ng/mL) [9]	11.7
[5]	12.1
[6]	8.55

percent inhibition of viability [%]
Conditions	DERL-7 (IL-2 2.5 ng/mL) [18]	KAI3 (IL-2 2.5 ng/mL) [17]	KHYG-1 (IL-2 2.5 ng/mL) [11]	NK-92 (IL-2 2.5 ng/mL) [12]	NK-YS (IL-2 2.5 ng/mL) [20]	NKL (IL-2 2.5 ng/mL) [14]	SNK-6 (IL-2 2.5 ng/mL) [13]	YT (IL-2 2.5 ng/mL) [19]	[15]	[16]
1 nM	3.63	-7.52	-9.07	-5.26	-10.6	-9.69	-15.8	1.34	1.42	-3.74
10 nM	11.6	-10.2	-3.7	-16.7	-2.12	-1.54	-1.34	-1.16	1.32	-13
100 nM	54.6	3.52	24.7	-31.8	19.8	29.4	12.2	8.16	9.32	-3.42
1000 nM	96.1	47.9	89.8	22.2	62.4	69	71.4	56.7	56.9	34
10000 nM	98.5	53.6	92.7	35.5	73.2	60.9	74.2	59.4	84.1	74.8

CCCC(CCC)C(=O)O [Valproic acid] (max concentration tested 1000000 nM)
percent inhibition of viability [%]
Conditions	100 nM	1000 nM	10000 nM	100000 nM	1000000 nM
IMC-1 (IL-2 20 ng/mL) [26]	-0.33	-1.48	-8.1	-1.23	17.4
[21]	-5.06	-5.78	-6.14	2.07	35.9
[25]	-3.47	-9.08	-3.52	0.62	31.7
[27]	-5.69	-8.36	-12.2	-3.8	14.2

Conditions	drug sensitivity score
IMC-1 (IL-2 20 ng/mL) [23]	0.34
[22]	1.5
[24]	0.1
[28]	2

CC[C@H](C)C(=O)O[C@H]1C[C@H](O)C=C2C=C[C@H](C)[C@H](CC[C@@H](O)C[C@@H](O)CC(=O)O)[C@H]21 [Pravastatin] (max concentration tested 10000 nM)
percent inhibition of viability [%]
Conditions	1 nM	10 nM	100 nM	1000 nM	10000 nM
IMC-1 (IL-2 20 ng/mL) [26]	1.44	3.55	-0.89	2.49	1.04
[21]	-2.35	-3.35	0.49	5.71	4.92
[25]	-8.99	-4.79	10.9	-9.05	10.6
[27]	-14.4	-6.44	1.67	-7.95	-0.67

Conditions	drug sensitivity score
IMC-1 (IL-2 20 ng/mL) [23]	0
[22]	0
[24]	0
[28]	0

CC(=O)O[C@]1(C(C)=O)CC[C@H]2[C@@H]3C=C(C)C4=CC(=O)CC[C@]4(C)[C@H]3CC[C@@]21C [Megestrol acetate] (max concentration tested 10000 nM)
percent inhibition of viability [%]
Conditions	1 nM	10 nM	100 nM	1000 nM	10000 nM
IMC-1 (IL-2 20 ng/mL) [26]	-3.51	-1.23	-4.32	-2.13	10.4
[21]	-2.74	-5.98	7.94	13.9	28.7
[25]	-3.39	3.68	-0.74	11.2	49.3
[27]	-8.34	-5.63	0.83	2.52	24.3

Conditions	drug sensitivity score
IMC-1 (IL-2 20 ng/mL) [23]	0
[22]	4.38
[24]	1.28
[28]	2.54

COc1cc(C(=O)O)ccc1NC(=O)[C@@H]1N[C@@H](CC(C)(C)C)[C@](C#N)(c2ccc(Cl)cc2F)[C@H]1c1cccc(Cl)c1F [RG7388] (max concentration tested 10000 nM)
Conditions	drug sensitivity score
DERL-7 (IL-2 2.5 ng/mL) [8]	23.8
KAI3 (IL-2 2.5 ng/mL) [7]	18.3
KHYG-1 (IL-2 2.5 ng/mL) [1]	2.54
NK-92 (IL-2 2.5 ng/mL) [2]	5
NK-YS (IL-2 2.5 ng/mL) [10]	23.3
NKL (IL-2 2.5 ng/mL) [4]	4.61
SNK-6 (IL-2 2.5 ng/mL) [3]	27.2
YT (IL-2 2.5 ng/mL) [9]	16.1
[5]	21.8
[6]	28.8

percent inhibition of viability [%]
Conditions	DERL-7 (IL-2 2.5 ng/mL) [18]	KAI3 (IL-2 2.5 ng/mL) [17]	KHYG-1 (IL-2 2.5 ng/mL) [11]	NK-92 (IL-2 2.5 ng/mL) [12]	NK-YS (IL-2 2.5 ng/mL) [20]	NKL (IL-2 2.5 ng/mL) [14]	SNK-6 (IL-2 2.5 ng/mL) [13]	YT (IL-2 2.5 ng/mL) [19]	[15]	[16]
1 nM	-5.33	5.19	-1.57	2.22	1.18	2.91	3.57	6.01	1.86	-11.7
10 nM	3.83	25.6	1.09	-12.5	18.7	8.19	25.5	14.9	-0.07	10.5
100 nM	51.1	39.8	-3.21	8.42	53.1	7.58	70.5	38.6	41.8	85.2
1000 nM	96.7	59.1	-4.2	8.41	82.9	5.83	81.8	50.9	90.3	92.2
10000 nM	101	68.4	53.8	65.4	99.9	67	92.7	86.7	99.1	93.6
